What was measured:
[1] = target: T1, HDAC1 enzyme (Homo sapiens, UniProt Q13547); assay: HDAC1 enzyme inhibitory assay (HDAC-Glo I/II Assay kit); format: biochemical; conditions: 1 μM test compound; read-out: HDAC1 inhibitory rate (%) (1 μM)
T1 construct: prepared by transducing full length HDAC1 and HDAC6 genes into Sf-9 insect cells; GST; purchased SignalChem; host or cells: Sf-9 insect cells
Procedure: HDAC1 enzyme and HDAC6 enzyme each prepared by transducing full length HDAC1 and HDAC6 genes into Sf-9 insect cells and purifying by GST affinity column were purchased from SignalChem. Using these enzymes, HDAC1 and/or HDAC6 enzyme inhibitory activities of the compound of the present invention were evaluated. Enzymes were used after preserved at −70° C. HDAC1 or HDAC6 enzyme inhibitory activity of the compound of the present invention was measured using HDAC-Glo™ I/II Assay kit (Promega) according to the following experimental method. The test compound diluted with assay buffer (24 mM Tris-HCl (pH 7.5), 1 mM MgCl2, 0.35 mM KCl, 135 mM NaCl, 0.6 mM Glutathione, 0.01% Tween-20) was added to a 384-well plate by each 2 μL. Then, HDAC1 or HDAC6 enzyme solution diluted with assay buffer was added thereto by each 4 μL, and the plate was incubated at room temperature for 60 min. After incubated, HDAC substrate-Developer solution prepared according to Promega protocol attached to the assay kit was added to the 384-well plate by each 2 μL, and the enzyme reaction was started. After reacting at room temperature for 20 min, luminescence level was measured using plate reader Envision (PerkinElmer). The inhibitory activity of each compound was calculated as a relative activity value when luminescence level in wells without enzyme is considered as 100% inhibition.

[2] = target: T2, HDAC6 enzyme (Homo sapiens, UniProt Q9UBN7); assay: HDAC6 enzyme inhibitory assay (HDAC-Glo I/II Assay kit); format: biochemical; conditions: 1 μM test compound; read-out: HDAC6 inhibitory rate (%) (1 μM)
T2 construct: prepared by transducing full length HDAC1 and HDAC6 genes into Sf-9 insect cells; GST; purchased SignalChem; host or cells: Sf-9 insect cells
T2 sequence (Q9UBN7 1-1215): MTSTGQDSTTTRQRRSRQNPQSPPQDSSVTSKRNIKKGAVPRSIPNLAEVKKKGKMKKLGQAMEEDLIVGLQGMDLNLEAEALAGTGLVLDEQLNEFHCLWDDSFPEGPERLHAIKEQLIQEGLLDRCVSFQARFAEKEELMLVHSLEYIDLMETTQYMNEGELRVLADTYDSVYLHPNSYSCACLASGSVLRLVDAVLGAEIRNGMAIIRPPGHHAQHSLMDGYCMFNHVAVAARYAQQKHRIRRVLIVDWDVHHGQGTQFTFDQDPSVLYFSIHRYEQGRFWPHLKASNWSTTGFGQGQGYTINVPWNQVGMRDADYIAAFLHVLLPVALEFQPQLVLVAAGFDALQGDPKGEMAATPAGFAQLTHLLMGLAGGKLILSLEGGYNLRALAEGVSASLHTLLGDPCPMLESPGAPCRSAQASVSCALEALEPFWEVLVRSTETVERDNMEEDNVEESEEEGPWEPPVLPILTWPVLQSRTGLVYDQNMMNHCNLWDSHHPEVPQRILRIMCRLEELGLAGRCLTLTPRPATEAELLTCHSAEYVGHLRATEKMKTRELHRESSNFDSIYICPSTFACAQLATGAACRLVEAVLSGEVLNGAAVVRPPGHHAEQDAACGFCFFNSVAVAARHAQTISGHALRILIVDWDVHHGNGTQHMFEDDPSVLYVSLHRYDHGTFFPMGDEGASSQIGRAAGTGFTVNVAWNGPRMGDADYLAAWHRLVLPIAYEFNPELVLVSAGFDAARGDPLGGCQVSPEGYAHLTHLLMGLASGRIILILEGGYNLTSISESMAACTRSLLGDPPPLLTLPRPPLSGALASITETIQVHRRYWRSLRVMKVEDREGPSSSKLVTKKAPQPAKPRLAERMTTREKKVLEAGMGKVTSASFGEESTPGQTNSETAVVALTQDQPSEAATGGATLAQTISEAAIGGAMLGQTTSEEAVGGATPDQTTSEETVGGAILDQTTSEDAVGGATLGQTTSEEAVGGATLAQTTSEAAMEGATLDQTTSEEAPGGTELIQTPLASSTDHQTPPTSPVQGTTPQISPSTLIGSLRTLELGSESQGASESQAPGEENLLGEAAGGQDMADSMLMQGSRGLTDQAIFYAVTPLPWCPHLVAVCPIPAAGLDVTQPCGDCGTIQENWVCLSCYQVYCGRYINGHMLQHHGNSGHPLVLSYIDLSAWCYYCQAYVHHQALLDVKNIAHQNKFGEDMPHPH
Procedure, shortened: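 Luminescent HDAC-Glo I/II read-out after 20 min room-temperature reaction with substrate-developer, following a 60 min room-temperature enzyme–compound preincubation. Enzymes: full-length HDAC1 or HDAC6 from Sf-9 cells, GST-purified; buffer pH 7.5 Tris with NaCl, glutathione, 0.01% Tween-20. No-enzyme wells defined 100% inhibition.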

T1 sequence (Q13547 whole entry): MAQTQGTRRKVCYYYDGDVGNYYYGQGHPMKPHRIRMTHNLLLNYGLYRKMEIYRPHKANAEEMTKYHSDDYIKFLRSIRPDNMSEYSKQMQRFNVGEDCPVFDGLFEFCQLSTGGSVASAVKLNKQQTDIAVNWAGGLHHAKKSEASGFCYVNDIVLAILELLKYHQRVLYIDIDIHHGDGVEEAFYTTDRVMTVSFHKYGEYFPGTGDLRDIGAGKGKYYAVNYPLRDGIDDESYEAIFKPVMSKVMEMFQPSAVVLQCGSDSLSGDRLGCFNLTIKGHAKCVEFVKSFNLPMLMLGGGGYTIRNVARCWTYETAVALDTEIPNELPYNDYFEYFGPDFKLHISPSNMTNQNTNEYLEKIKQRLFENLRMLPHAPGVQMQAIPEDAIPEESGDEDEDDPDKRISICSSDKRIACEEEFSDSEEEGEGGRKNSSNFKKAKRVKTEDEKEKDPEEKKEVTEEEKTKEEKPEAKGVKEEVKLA

Structure (SMILES) | inhibition at 1 µM [1] [%] | inhibition at 1 µM [2] [%]
O=C(NC[C@H]1COCCN1C(=O)N1CCCOC(CO)C1)c1ccc(-c2noc(C(F)(F)F)n2)cc1 (stereo partly drawn) [Example 291, N-(((3S)-4-((2-(hydroxymethyl)-1,4-oxazepan-4-yl)carbonyl)morpholin-3-yl)methyl)-4-(5-(trifluoromethyl)-1,2,4-oxadiazol-3-yl)benzamide] | 1 | 90
Cn1nc2c(c1C(=O)N1CCOCC1CNC(=O)c1ccc(-c3noc(C(F)(F)F)n3)cc1)CCCC2 (stereo in doubt) [Example 93, N-(((3S)-4-((2-methyl-4,5,6,7-tetrahydro-2H-indazol-3-yl)carbonyl)morpholin-3-yl)methyl)-4-(5-(trifluoromethyl)-1,2,4-oxadiazol-3-yl)benzamide] | 21 | 95
O=C(NC[C@@H]1COCCN1C(=O)N1CCCCC1)c1ccc(-c2noc(C(F)(F)F)n2)cc1 [Example 158, N-(((3R)-4-(piperidin-1-ylcarbonyl)morpholin-3-yl)methyl)-4-(5-(trifluoromethyl)-1,2,4-oxadiazol-3-yl)benzamide] | 12 | 97
Cn1nccc1C(=O)N1CCOCC1CNC(=O)c1ccc(-c2noc(C(F)(F)F)n2)s1 (stereo not drawn) [Example 229, N-((4-((1-methyl-1H-pyrazol-5-yl)carbonyl)morpholin-3-yl)methyl)-5-(5-(trifluoromethyl)-1,2,4-oxadiazol-3-yl)thiophene-2-carboxamide] |  | 97
Cc1ncsc1C(=O)N1CCOC[C@H]1CNC(=O)c1ccc(-c2noc(C(F)(F)F)n2)cc1 [Example 141, N-(((3R)-4-((4-methyl-1,3-thiazol-5-yl)carbonyl)morpholin-3-yl)methyl)-4-(5-(trifluoromethyl)-1,2,4-oxadiazol-3-yl)benzamide] |  | 89
O=C(NCC1Cc2ccccc2N1C(=O)c1cc(Cl)cc(Cl)c1)c1ccc(-c2noc(C(F)(F)F)n2)cc1 (stereo not drawn) [Example 168, N-((1-(3,5-dichlorobenzoyl)-2,3-dihydro-1H-indol-2-yl)methyl)-4-(5-(trifluoromethyl)-1,2,4-oxadiazol-3-yl)benzamide] |  | 70
N#Cc1cccc(C(=O)N2CCOCC2CNC(=O)c2ccc(-c3noc(C(F)(F)F)n3)s2)c1 (stereo not drawn) [Example 218, N-((4-(3-cyanobenzoyl)morpholin-3-yl)methyl)-5-(5-(trifluoromethyl)-1,2,4-oxadiazol-3-yl)thiophene-2-carboxamide] |  | 91
O=C(NCC1COCCN1C(=O)C1CC1)c1ccc(-c2noc(C(F)(F)F)n2)s1 (stereo not drawn) [Example 253, N-((4-(cyclopropylcarbonyl)morpholin-3-yl)methyl)-5-(5-(trifluoromethyl)-1,2,4-oxadiazol-3-yl)thiophene-2-carboxamide] |  | 97
Cc1oncc1C(=O)N1CCOC[C@H]1CNC(=O)c1ccc(-c2noc(C(F)(F)F)n2)cc1 [Example 131, N-(((3R)-4-((5-methyl-1,2-oxazol-4-yl)carbonyl)morpholin-3-yl)methyl)-4-(5-(trifluoromethyl)-1,2,4-oxadiazol-3-yl)benzamide] |  | 87
O=C(NC[C@@H]1COCCN1C(=O)C(c1ccccc1)c1ccccc1)c1ccc(-c2noc(C(F)(F)F)n2)cc1 [Example 129, N-(((3R)-4-(diphenylacetyl)morpholin-3-yl)methyl)-4-(5-(trifluoromethyl)-1,2,4-oxadiazol-3-yl)benzamide] |  | 53
Cn1ccc(C(=O)N2CCOC[C@H]2CNC(=O)c2ccc(-c3noc(C(F)(F)F)n3)cc2)n1 [Example 137, N-(((3R)-4-((1-methyl-1H-pyrazol-3-yl)carbonyl)morpholin-3-yl)methyl)-4-(5-(trifluoromethyl)-1,2,4-oxadiazol-3-yl)benzamide] |  | 93

The remaining lines, values ahead:

inhibition at 1 µM [1] [%] | inhibition at 1 µM [2] [%] | Structure (SMILES)
27 | 99 | O=C(NCC1COCCN1C(=O)c1ccccc1)c1ccc(-c2noc(C(F)(F)F)n2)cc1F (stereo not drawn) [Example 177, N-((4-benzoylmorpholin-3-yl)methyl)-2-fluoro-4-(5-(trifluoromethyl)-1,2,4-oxadiazol-3-yl)benzamide]
16 | 94 | O=C(NC[C@H]1COCCN1C(=O)c1cccc(-c2ccccc2)c1)c1ccc(-c2noc(C(F)(F)F)n2)s1 [Example 262, N-(((3S)-4-(biphenyl-3-ylcarbonyl)morpholin-3-yl)methyl)-5-(5-(trifluoromethyl)-1,2,4-oxadiazol-3-yl)thiophene-2-carboxamide]
20 | 98 | O=C(NC[C@H]1COCCN1C(=O)C1(c2ccccc2)CC1)c1ccc(-c2noc(C(F)(F)F)n2)cn1 [Example 202, N-(((3S)-4-((1-phenylcyclopropyl)carbonyl)morpholin-3-yl)methyl)-5-(5-(trifluoromethyl)-1,2,4-oxadiazol-3-yl)pyridine-2-carboxamide]
 | 97 | O=C(NCC1COCCN1C(=O)c1cccc(F)c1)c1ccc(-c2noc(C(F)(F)F)n2)s1 (stereo not drawn) [Example 212, N-((4-(3-fluorobenzoyl)morpholin-3-yl)methyl)-5-(5-(trifluoromethyl)-1,2,4-oxadiazol-3-yl)thiophene-2-carboxamide]
 | 95 | N#Cc1cc(F)cc(C(=O)N2CCOC[C@H]2CNC(=O)c2ccc(-c3noc(C(F)(F)F)n3)cc2)c1 [Example 156, N-(((3R)-4-(3-cyano-5-fluorobenzoyl)morpholin-3-yl)methyl)-4-(5-(trifluoromethyl)-1,2,4-oxadiazol-3-yl)benzamide]
 | 95 | O=C(NC[C@H]1COCCN1C(=O)c1cc2ccccc2o1)c1ccc(-c2noc(C(F)(F)F)n2)cc1 [Example 53, N-(((3S)-4-(1-benzofuran-2-ylcarbonyl)morpholin-3-yl)methyl)-4-(5-(trifluoromethyl)-1,2,4-oxadiazol-3-yl)benzamide]
 | 52 | O=C(NCC1COCCN1C(=O)c1ccccc1)c1cc(-c2noc(C(F)(F)F)n2)cs1 (stereo not drawn) [Example 267, N-((4-benzoylmorpholin-3-yl)methyl)-4-(5-(trifluoromethyl)-1,2,4-oxadiazol-3-yl)thiophene-2-carboxamide]
 | 94 | O=C(NC[C@@H]1COCCN1C(=O)COc1ccccc1)c1ccc(-c2noc(C(F)(F)F)n2)cc1 [Example 130, N-(((3R)-4-(phenoxyacetyl)morpholin-3-yl)methyl)-4-(5-(trifluoromethyl)-1,2,4-oxadiazol-3-yl)benzamide]
 | 95 | O=C(NC[C@H]1COCCN1C(=O)c1cc2ncccn2n1)c1ccc(-c2noc(C(F)(F)F)n2)cc1 [Example 54, N-(((3S)-4-(pyrazolo[1,5-a]pyrimidin-2-ylcarbonyl)morpholin-3-yl)methyl)-4-(5-(trifluoromethyl)-1,2,4-oxadiazol-3-yl)benzamide]
 | 87 | Cc1cc(C(=O)N2CCOCC2CNC(=O)c2ccc(-c3noc(C(F)(F)F)n3)cc2)ccn1 (stereo in doubt) [Example 121, N-(((3R)-4-(2-methylisonicotinoyl)morpholin-3-yl)methyl)-4-(5-(trifluoromethyl)-1,2,4-oxadiazol-3-yl)benzamide]

From patent US10081624B2, “Heterocyclic compound” (Takeda Pharmaceutical Company Limited, priority 2014, dated 2018)
